From article PMC8851282, “Senolysis induced by 25-hydroxycholesterol targets CRYAB in multiple cell types” (iScience, 2022)

Legend:
FAPs [1] = assay: Single-cell RNA sequencing of FAPs from skeletal muscle of mice treated with PBS, Doxo or Doxo + ABT (differential gene expression); conditions: for senescent FAPs in mouse skeletal muscle (scRNA seq): four-month-old male mice, Doxo 10 mg/kg i.p., ABT 50 mg/kg/day by gavage, 2 cycles of 5 days
[2] = system: human skeletal muscle myoblasts (HSMMs); assay: Cell viability assay (cell counting kit-8) of senescent and non-senescent HSMMs treated with inhibitors; assay type: cell-based; conditions: for IC50: Homo sapiens, Myoblast, HSMM; for viability of senescent versus non-senescent HSMMs: Doxo-induced senescence, viability on day 3
Protocol: (§1) Figure 3 25HC is a senolytic in multiple muscle cell types (A) Targets, compounds, and mechanisms. (B) Timeline of cell viability assay with inhibitors. Cells were pre-cultured for 24 h, treated with Doxo for 24 h, and then treated with inhibitors. Cell viability was analyzed from day 0–7. (C–E) Effects of inhibitors on viability of FAPs, SCs, and HSMMs. Cells were treated with inhibitors at the indicated concentrations. Cell viability was analyzed on day 3 (HSMMs) or 5 (FAPs and SCs). Blue and red dots indicate non-senescent (NS) and senescent (SEN), respectively. The average value at 0 μM for each group was set at 100% cell viability. p values versus NS were obtained using unpaired two-tailed Student’s t test. ∗p < 0.05, ∗∗p < 0.01, and ∗∗∗p < 0.001.
(§2) All experiments were performed in incubators at 37 °C, 3% O2 and 5% CO2. Senescence was induced by treatment with either Doxo (250 nM for 24 h) ([Demaria et al., 2017]) or X-irradiation (10 Gy) ([Limbad et al., 2020]). For cell culture studies using 25HC, it was used at the indicated concentrations in the media.
(§3) FAPs and SCs were cultured on Matrigel-coated dishes (BD Biosciences) in growth medium (GM) consisting of DMEM plus 10% FBS, 1% penicillin-streptomycin and 10% MyoCult (STEMCELL Technologies) for 7 days. Human myogenic cell HSMMs (Lonza) were maintained according to the manufacturer’s instructions with SkGM-2 medium (Lonza).
(§4) Cell viability was assessed using a cell counting kit-8 from Dojindo Molecular Technologies, Inc (Cat CK04-20). Cells were incubated with culture media + 10% kit cell viability reagent, 150 μL/well in 96-well plates for 2 h. The supernatant was transferred to a new 96-well plate and absorbance read at 450 nm as recommended in the product datasheet.

SCs [3] = assay: Single-cell RNA sequencing of SCs from skeletal muscle of mice treated with PBS, Doxo or Doxo + ABT (differential gene expression); conditions: four-month-old male mice; Doxo 10 mg/kg i.p.; ABT 50 mg/kg/day by gavage, 2 cycles of 5 days
senescent cells = assay: Senescent cell burden in mice treated with Doxo or Doxo + ABT; conditions: four-month-old male mice; Doxo 10 mg/kg; ABT 50 mg/kg/day after Doxo
SCs [4] = assay: Cell viability assay (cell counting kit-8) of senescent and non-senescent SCs treated with inhibitors; assay type: cell-based, mouse; conditions: for viability of senescent versus non-senescent SCs: Doxo-induced senescence, viability on day 5
Protocol: as §1
(§5) Figure 4 EC50 fitted curves (triplicates) of inhibitor effects at 3 and 7 days in FAPS and SCs EC50 was defined as the concentration of inhibitors that provokes a response halfway between baseline and maximum senolytic activity. EC50 values were determined by four- parameter logistic modeling using GraphPad Prism 8.0.
(§6) Hind limb muscles were digested in DMEM containing 0.5% (w/v) collagenase type II (Worthington) for 90 min at 37 °C with trituration and passed through a 40-μm nylon mesh. Erythrocytes were eliminated by treating with BD Pharm Lyse (BD Biosciences). Cells were resuspended in a washing buffer of PBS with 2% FBS and stained with antibodies for 30 min at 4 °C as described ([Kamizaki et al., 2017]). FAPs and SCs were isolated from the suspension by FACS (Aria II, BD Biosciences) using anti-CD31, CD45, Sca-1, PDGFR and VCAM1 antibodies. FAPs were identified as Sca1/PDGFR-positive and CD31-, CD45- and VCAM1-negative cells ([Uezumi et al., 2010]). SCs were identified as VCAM1-positive and CD31-, CD45-, Sca-1 and PDGFR-negative cells ([Liu et al., 2015]).
as §2, §3, §4

FAPs [5] = assay: Cell viability assay (cell counting kit-8) of senescent and non-senescent FAPs treated with inhibitors; assay type: cell-based, mouse; conditions: for IC50: FAPs; for viability of senescent versus non-senescent FAPs: Doxo-induced senescence, viability on day 5, 25HC at concentrations between 0.1 and 1 μM
Protocol: as §1, §5, §6, §2, §3, §4

[6] = Body weight and gastrocnemius muscle weight in Doxo-treated mice; assay type: in vivo, mouse; conditions: 4 mg/kg Doxo i.p., 5 injections, versus PBS
Protocol: (§7) Figure 8 25HC induces senolysis in vivo in Doxo-treated mice (A) Timeline of 25HC treatment in Doxo-treated mice. Mice were given 4 mg/kg Doxo or PBS for 5 daily injections[A1], then injected with 25HC or vehicle for 7 consecutive days. (B) Mass of gastrocnemius muscles. Muscle weight was normalized to body weight. (C) Cdkn2a and Cryab mRNA levels in gastrocnemius (Gastroc) and soleus (Sol) muscles. RNA was collected 28–30 d after the first treatment with Doxo. mRNA levels were quantified by qRT-PCR, and normalized to actin mRNA levels. The average value of PBS-vehicle was set at 1. (D) 15-d-PGJ2 analysis in urine. Urine was collected at 24 h after the first treatment with 25HC or HbCD. p values versus PBS-Veh or Doxo-Veh are obtained using Tukey's multiple comparisons test. ∗p < 0.05, ∗∗p < 0.01, p < 0.001, and ∗∗∗∗p < 0.0001.
Male C57BL/6J mice (3–4 months old) were purchased from the Jackson Laboratory. We performed five i.p. injections with 4 mg/kg of Doxo (Tocris Bioscience, Product# 2252) for each injection over 10 days (Figure 6A). Therefore, we injected a total of 20 mg/kg of Doxo/mouse over 10 days. […] Senescence markers p16^INK4a, p21^Cip1 and CRYAB expression was analyzed on gastrocnemius (Gastroc), soleus (So), tibialis anterior (TA), visceral fat (VF), kidney (Ki), liver (Li), lung (Lu), heart (He), and skin (Sk) samples by qRT-PCR.

FAPs [7] = assay: Senescence induction by Doxo in cultured primary FAPs (qRT-PCR of marker genes, growth rate); assay type: cell-based, mouse; conditions: 250 or 100 nM Doxo
SCs [8] = assay: Senescence induction by Doxo in cultured primary SCs (qRT-PCR of marker genes, growth rate); assay type: cell-based, mouse; conditions: 250 or 100 nM Doxo
[9] = system: Cdkn1a and Cryab mRNA in gastrocnemius and soleus muscles; assay: qRT-PCR of senescence markers and Cryab in muscles of Doxo-treated mice given 25HC; assay type: in vivo, mouse; conditions: mice, 4 mg/kg Doxo i.p., 5 injections, versus PBS
Protocol: as §7
Male C57BL/6J mice (3–4 months old) were purchased from the Jackson Laboratory. We performed five i.p. injections with 4 mg/kg of Doxo (Tocris Bioscience, Product# 2252) for each injection over 10 days (Figure 6A). Therefore, we injected a total of 20 mg/kg of Doxo/mouse over 10 days. We used EFT-PBS (EMD Millipore, Product# TMS-012-A) as a control. To test effects of 25HC (Tocris Bioscience, Product# 5741) on Doxo-treated mice, we prepared three experimental groups (n=15 for each group): 1) PBS+HβCD vehicle (22.5%), 2) Doxo (20 mg/kg)+vehicle (22.5%), 3) Doxo (20 mg/kg)+25HC (50 mg/kg) (Figure 6A); 25HC was dissolved in 22.5% 2-hydroxypropyl-beta-cyclodextrin (HβCD) (Tocris Bioscience, Product 0708). On the Day 5 after the last Doxo/PBS injections, the mice were treated with either 25HC (50 mg/kg) or vehicle by i.p. injections for 7 consecutive days (Figure 6A). 12 hr after the first 25HC or vehicle treatments, urine was collected (Figure 6A) from each group to test for the senolysis marker 15-d-PGJ2. […] Senescence markers p16^INK4a, p21^Cip1 and CRYAB expression was analyzed on gastrocnemius (Gastroc), soleus (So), tibialis anterior (TA), visceral fat (VF), kidney (Ki), liver (Li), lung (Lu), heart (He), and skin (Sk) samples by qRT-PCR. […]

[10] = system: mouse dermal fibroblasts (mDFs); assay: Cell viability assay of NS and SEN mouse dermal fibroblasts treated with CRYAB and HMOX1 inhibitors; assay type: cell-based; conditions: 250 nM Doxo-induced senescence; after 72 h of treatment; 25HC at five or 10 μM
Protocol: The average value of DMSO was set at 1. (B and D) Effects of CRYAB and HMOX1 inhibitors on DMSO-treated NS or Doxo-treated SEN cells; (B) mDFs, (D) IMR-90s. Cells were treated with the inhibitors at the indicated concentrations. Cell viability was measured after 72 h. (C) IMR-90 qRT-PCR. For qPCR: mean +/- SE, n =4, ∗p< 0.05, ∗∗p< 0.01, ∗∗∗p<0.001, ∗∗∗∗p<0.0001 by Dunnett’s multiple comparisons test vs DMSO. For cell viability assays: mean +/- SE, n =3, ∗∗p< 0.01, ∗∗∗p<0.001, ∗∗∗∗p<0.0001 vs 0 mM by student’s t test.
For skin sample collection, mice were euthanized, hair removed from dorsal skin and the area cleaned with alcohol. A small 1 cm x 1 cm region of skin was removed, and subcutaneous fat removed by scalpel. Skin was digested in 2–3 ml of 0.25% trypsin at 37 °C for 1 h. Hair and epidermis were further removed, and the dermis was minced into 2–3 mm pieces. Digestion of the sample in 5 ml of 1 mg/ml collagenase (Sigma, Cat#C5138) in HBSS (with Ca^++ and Mg^++) (Gibco, cat#24020117) was carried out at 37 °C on a shaker for 1 h. Collagenase digestion was stopped by addition of 10 ml 10% FBS DMEM. Filtration of the homogenate through a 70-micron mesh was performed to remove undigested tissue. Differential centrifugation and washing were performed at 1200 rpm for 5 min, and the pellet was resuspended in 10% FBS DMEM then seeded in a six-well plate. Media were changed at 5 days after seeding and then every 3 days.
as §2, §4

## CC1(C)CCC(c2ccc(Cl)cc2)=C(CN2CCN(c3ccc(C(=O)NS(=O)(=O)c4ccc(N[C@H](CCN5CCOCC5)CSc5ccccc5)c(S(=O)(=O)C(F)(F)F)c4)cc3)CC2)C1 [ABT263]
FAPs [1]
  senescent FAPs in mouse skeletal muscle (scRNA seq): reduces the fraction
FAPs [1]; sheet abt_down, gene Capza2, cluster c7, scRNA-seq differential expression
  avg_logFC of gene Capza2: -0.2501
FAPs [1]; sheet abt_down, gene Coq10b, cluster c7, scRNA-seq differential expression
  avg_logFC of gene Coq10b: -0.25
FAPs [1]; sheet abt_down, gene Hes1, cluster c1, scRNA-seq differential expression
  avg_logFC of gene Hes1: -0.2504
FAPs [1]; sheet abt_down, gene Pds5b, cluster c9, scRNA-seq differential expression
  avg_logFC of gene Pds5b: -0.2501
FAPs [1]; sheet abt_down, gene Qpct, cluster c3, scRNA-seq differential expression
  avg_logFC of gene Qpct: -0.2504
FAPs [1]; sheet abt_up, gene Creld2, cluster c4, scRNA-seq differential expression
  avg_logFC of gene Creld2: 0.8182
FAPs [1]; sheet abt_up, gene Cxcl14, cluster c5, scRNA-seq differential expression
  avg_logFC of gene Cxcl14: 0.8906
FAPs [1]; sheet abt_up, gene Myl9, cluster c9, scRNA-seq differential expression
  avg_logFC of gene Myl9: 0.9071
FAPs [1]; sheet abt_up, gene Plac8, cluster c3, scRNA-seq differential expression
  avg_logFC of gene Plac8: 0.7972
FAPs [1]; sheet abt_up, gene Tpm2, cluster c9, scRNA-seq differential expression
  avg_logFC of gene Tpm2: 1.1381
[2]; 72 h, 3 days in culture
  IC50: 15.2 µM
[2]; 168 h, 7 days in culture
  IC50: 9 µM
SCs [3]
  senescent SCs in mouse skeletal muscle (scRNA seq): reduces the fraction
Senescent cells
  burden of senescent cells in mice: reduced burden of senescent cells
SCs [4]; Mus musculus, 168 h, SCs, 7 days in culture
  IC50: 14.1 µM
FAPs [5]; Mus musculus, 72 h, 3 days in culture
  IC50: 14.7 µM
FAPs [5]; Mus musculus, 168 h, 7 days in culture
  IC50: 7.5 µM

## COc1cccc2c1C(=O)c1c(O)c3c(c(O)c1C2=O)C[C@@](O)(C(=O)CO)C[C@@H]3O[C@H]1C[C@H](N)[C@H](O)[C@H](C)O1 [Doxo, Doxorubicin]
FAPs [1]
  senescent FAPs in mouse skeletal muscle (scRNA seq): induces senescence
[6]
  body weight: significantly decreased
  gastrocnemius muscle weight normalized to body weight: no difference
FAPs [7]
  senescence induction in cultured FAPs: induced senescence
SCs [8]
  senescence induction in cultured SCs: induced senescence
[9]
  Cdkn1A mRNA in gastrocnemius and soleus muscles: significantly increased
SCs [3]
  senescent SCs in mouse skeletal muscle (scRNA seq): induces senescence
Senescent cells
  burden of senescent cells in mice: induced senescence

## Brc1ccc(CCC2(Cn3ccnc3)OCCO2)cc1.Cl [OB24]
[2]
  viability of senescent versus non-senescent HSMMs: significantly decreased cell viability
[10]
  senolysis in mDF cells: ineffective
SCs [4]
  viability of senescent versus non-senescent SCs: no difference in killing
FAPs [5]
  viability of senescent versus non-senescent FAPs: slightly but significantly decreased the viability of FAPs
FAPs [5]; 7 days in culture
  IC50: 261 µM

## O=C(CC(c1ccccc1)c1ccccc1)Cn1ccnc1 [QC-308]
[2]
  viability of senescent versus non-senescent HSMMs: significantly decreased cell viability
[10]
  senolysis in mDF cells: ineffective
SCs [4]
  viability of senescent versus non-senescent SCs: no difference in killing
FAPs [5]
  viability of senescent versus non-senescent FAPs: slightly but significantly decreased the viability of FAPs
